Experimental data reported in US20220362386A1, “LIQUID COMPOSITIONS COMPRISING A LEVODOPA AMINO ACID CONJUGATE AND USES THEREOF” (NeuroDerm, Ltd., priority 2019, published 2022).
Counter-ions that a name gives are not always drawn. Blank lines part the entries; values can stand above or below the compound they belong to. Non-standard residues stand in square brackets, D forms with d. Residues, ends and D or L forms follow the SMILES beside them. Dopa = N[C@@H](Cc1ccc(O)c(O)c1)C(=O)O

Legend:
Caco-2 cells = test: in vitro; conditions: Caco-2
[1] = LD-Arg, LD-Lys and LD-Tyr formulations of Experimental Example 12, physical stability (Tables 35-41); assay type: physicochemical; conditions: for Physical Stability: room temperature overnight
Method: Formulations as described in the tables below were prepared by adding a CD solution and dissolving all ingredients together. The CD for the LD-Arg formulation was prepared as follows: WFI was added to a bottle, after which Tween® 80 and sodium bisulfite were added, stirred to dissolution, and heated to 60° C. CD was added, stirred for 1-2 minutes to achieve homogenization. Finally, L-Arginine was added, the bottle was flushed with nitrogen, tightly closed and stirred 15 min. Dissolution was verified and the preparation was allowed to cool to ambient temperature. The pH was measured, and the preparation was transferred to a measurement bottle, where the volume was completed to the predefined final volume by adding WFI. The preparation was then filtered through sterile 0.22 μm nylon filter, transferred to 20 ml vials, after which nitrogen was purged into the headspace and the vials were frozen at −20° C. until use.
The CD solution for the LD-Tyr and LD-Lys formulations was prepared as follows: WFI was added to a bottle. Tween® 80 and sodium bisulfite were added, stirred to dissolution and heated to 60° C. CD was added, and stirred for 1-2 minutes to achieve homogenization. NaOH was added, after which the bottle was washed with nitrogen, closed tightly and stirred for 15 minutes. Dissolution was verified and the preparation was allowed to cool to ambient temperature. The pH was measured, and preparation was transferred to a measurement bottle, in which the volume was completed to final predefined volume by adding WFI. The preparation was then filtered through a sterile 0.22 μm nylon filter, transferred to 20 ml vials, after which nitrogen was purged into headspace and the vials were frozen at −20° C. until use.

[2] = Analytical stability of LD-Tyr/CD formulations by HPLC (Tables 42-45c); conditions: for % retention, t = 1 week / Analytical stability result (HPLC), t = 1 week / % retention, t = 2 weeks / Analytical stability result (HPLC), t = 2 weeks: NB 144-4 formulation; for Analytical stability result (HPLC), t = 1 week / Analytical stability result (HPLC), t = 2 weeks: in mg/mL (unit assumed)
Method: It is noted that the recovery % compared the amount of any given material as measured at t=28 h (or any other presented value) compared to the amount of that material, at measured at t=0.

[3] = t = 12 days, LD-Tyr 37.0%, CD 0.75%, L-Arginine 6.00, NaOH 0, TRIS 13, pH 8.14
[4] = t = 14 days, LD-Tyr 44.0%, CD 0.75%, L-Arginine 25.70, NaOH 0, TRIS 0, pH 8.34
[5] = t = 26 days, LD-Tyr 37.0%, CD 0.75%, L-Arginine 6.00, NaOH 0, TRIS 12.124, pH 8.12
[6] = t = 26 days, LD-Tyr 44.0%, CD 0.75%, L-Arginine 6.76, NaOH 0, TRIS 13.726, pH 8.08
[7] = NB 144-32 (F1), 37% LD-Tyr/0.5% CD
[8] = NB 144-34 (F2), 44% LD-Tyr/0.5% CD
[9] = NB 144-39 (F3), 30% LD-Tyr/0.5% CD

mean permeability compared with the other compounds (in words) (Caco-2 cells): highest mean permeability
SMILES: N[C@@H](CSC[C@H](NC(=O)[C@@H](N)Cc1ccc(O)c(O)c1)C(=O)O)C(=O)O (single isomer, unassigned; peak 2) [LD-LA2 TFA salt, Levodopa Lanthionine Peak 2 TFA Salt]

SMILES: N[C@@H](Cc1ccc(O)c(O)c1)C(=O)N[C@@H](Cc1ccc(O)cc1)C(=O)O [LD-Tyr TFA salt, Levodopa Tyrosine TFA Salt] (H-[Dopa]-Tyr-OH)
Physical Stability ([1]; LD-Tyr 20%, Arg 0%, TRIS 8.8%, pH 7.94, molar ratio 1:1.20): Precipitated
Physical Stability ([1]; LD-Tyr 30%, Arg 4.5%, TRIS 9.72%, pH 8.00, molar ratio 1:1.20): Stable
Physical Stability ([1]; LD-Tyr 37%, Arg 5.8%, TRIS 11.7%, pH 8.12, molar ratio 1:1.32): Stable
Physical Stability ([1]; LD-Tyr 44%, Arg 6.8%, TRIS 13.8%, pH 8.02, molar ratio 1:1.20): Stable
Physical Stability ([1]; LD-Tyr 44%, Arg 7.33%, TRIS 14.9%, pH 8.08, molar ratio 1:1.30): Stable
Appearance, 25° C. ([1]; t = 1 days, LD-Tyr 44.0%, CD 0%, L-Arginine 21.4, NaOH 0.60, TRIS 0, pH 8.29): Stable
Appearance, Refrigerated (2-8° C.) ([1]; t = 1 days, LD-Tyr 44.0%, CD 0.75%, L-Arginine 6.27, NaOH 0, TRIS 12.69, pH 8.02): Stable
Appearance, 25° C. ([1]; t = 3 days, LD-Tyr 44.0%, CD 0.75%, L-Arginine 6.27, NaOH 0, TRIS 12.69, pH 8.02): Stable
Appearance, Refrigerated (2-8° C.) ([1]; t = 7 days, LD-Tyr 44.0%, CD 0.75%, L-Arginine 8.00, NaOH 0, TRIS 15, pH 8.15): Stable
Appearance, 25° C. [1, 3]: Stable
Appearance, Refrigerated (2-8° C.) [1, 3]: Stable
Appearance, 25° C. ([1]; t = 12 days, LD-Tyr 44.0%, CD 0.75%, L-Arginine 21.4, NaOH 0.60, TRIS 0, pH 8.29): Stable
Appearance, 25° C. ([1]; t = 14 days, LD-Tyr 44.0%, CD 0.75%, L-Arginine 8.00, NaOH 0, TRIS 15, pH 8.15): Stable
Appearance, 25° C. [1, 4]: Stable
Appearance, Refrigerated (2-8° C.) [1, 4]: Stable
Appearance, 25° C. ([1]; t = 24 days, LD-Tyr 44.0%, CD 0.75%, L-Arginine 21.86, NaOH 0.60, TRIS 0, pH 8.57): Stable
Appearance, 25° C. [1, 5]: Stable
Appearance, Refrigerated (2-8° C.) [1, 5]: Stable
Appearance, 25° C. [1, 6]: Stable
Appearance, Refrigerated (2-8° C.) [1, 6]: Stable
Appearance, 25° C. ([1]; t = 27 days, LD-Tyr 44.0%, CD 0.75%, L-Arginine 25.72, NaOH 0, TRIS 0, pH 8.43): Stable
Appearance, Refrigerated (2-8° C.) ([1]; t = 44 days, LD-Tyr 30.0%, CD 0.75%, L-Arginine 7.00, NaOH 0, TRIS 10.5, pH 8.23): precipitated
Appearance, Refrigerated (2-8° C.) ([1]; t = 50 days, LD-Tyr 30.0%, CD 0.75%, L-Arginine 18.10, NaOH 0, TRIS 0, pH 8.36): Stable
Appearance, Refrigerated (2-8° C.) ([1]; t = 56 days, LD-Tyr 44.0%, CD 0.75%, L-Arginine 21.86, NaOH 0.60, TRIS 0, pH 8.57): Stable
Appearance, 25° C. ([1]; t = 70 days, LD-Tyr 38.0%, CD 0%, L-Arginine 21.90, NaOH 0, TRIS 0, pH 8.43): Stable
Appearance, Refrigerated (2-8° C.) ([1]; t = 70 days, LD-Tyr 44.0%, CD 0.75%, L-Arginine 25.72, NaOH 0, TRIS 0, pH 8.43): Stable
% retention, t = 1 week ([2]; Storage temp. 2-8° C.): 98.8%
Analytical stability result (HPLC), t = 1 week ([2]; Storage temp. 2-8° C.): 323.22
% retention, t = 2 weeks ([2]; Storage temp. 2-8° C.): 99.7%
Analytical stability result (HPLC), t = 2 weeks ([2]; Storage temp. 2-8° C.): 326.20
% retention, t = 1 week ([2]; Storage temp. 25° C.): 101.1%
Analytical stability result (HPLC), t = 1 week ([2]; Storage temp. 25° C.): 330.81
% retention, t = 2 weeks ([2]; Storage temp. 25° C.): 97.3%
Analytical stability result (HPLC), t = 2 weeks ([2]; Storage temp. 25° C.): 318.15
% retention, t = 1 week ([2]; Storage temp. 40° C.): 93.0%
Analytical stability result (HPLC), t = 1 week ([2]; Storage temp. 40° C.): 304.24
Concentration (HPLC), t = 0 [2, 7]: 364.15
Concentration (HPLC), t = 28 h at 32° C. [2, 7]: 352.22
Concentration (HPLC), t = 0 [2, 8]: 437.98
Concentration (HPLC), t = 28 h at 32° C. [2, 8]: 424.09
Concentration (HPLC), t = 0 [2, 9]: 295.42
Concentration (HPLC), t = 28 h at 32° C. [2, 9]: 291.94
